Target: T1, RORγ (Homo sapiens, UniProt P51449)
T1 construct: expressed in transfected cells; host or cells: 293FT cells (Invitrogen), expression vector pFN26A (Promega)
T1 sequence (P51449 269-508 limits assumed): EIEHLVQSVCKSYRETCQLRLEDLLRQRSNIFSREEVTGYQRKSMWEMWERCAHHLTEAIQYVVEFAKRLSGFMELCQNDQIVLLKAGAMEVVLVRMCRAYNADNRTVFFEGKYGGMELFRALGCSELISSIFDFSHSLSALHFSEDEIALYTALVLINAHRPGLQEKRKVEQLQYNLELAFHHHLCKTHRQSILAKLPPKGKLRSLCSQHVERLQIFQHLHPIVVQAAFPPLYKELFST
Assay: RORγ GAL4 reporter gene assay (luciferase readout)
Type: cell-based
Details: inhibition of RORγ (GAL4-RORγ-LBD) in 293FT cells, luciferase signal; read-out: mean pIC50 (converted)
Description: Example inhibitors 1-38 were tested for their ability to inhibit RORγ activity in a RORγ GAL4 reporter gene assay. The assay procedure and results are described below.
A GAL4 one-hybrid reporter system employing luciferase readout was established to determine inhibition of RORγ in 293FT cells. The RORγ ligand-binding domain (LBD) was fused to the yeast GAL4 DNA binding domain (DBD) and placed under the control of the human cytomegalovirus (CMV) immediate early promoter, using expression vector pFN26A (Promega) and standard recombinant DNA cloning methods. To serve as a control in the assay, a similar vector was generated in which the GAL4-DBD was fused to Herpes simplex virus protein 16 (VP16), a constitutive transcriptional activator.
To monitor the inhibitory effect of compounds on RORγ, a transcriptional reporter construct was used. The pGL4.35 vector (Promega) contains nine copies of the GAL4 Upstream Activator Sequence (UAS). This sequence drives the transcription of the luciferase reporter gene luc2P in response to binding of a fusion protein containing the GAL4 DNA binding domain, as for example expressed by the GAL4-RORγ-LBD and GAL4-VP16 expression vectors described above. To allow a GAL4 fusion protein to drive the expression of the luciferase reporter, the pGL4.35 expression vector and the appropriate GAL4 fusion protein expression vector were bulk transfected in the 293FT cells using standard transfection techniques.
The day after transfection, cells were plated into 96 well plates, test compound was added and the plates were incubated overnight. Subsequently, the firefly luciferase activity was quantified using luciferase detection reagent and luminescence readout.
293FT cells (Invitrogen) were transfected with a GAL4 fusion protein expression vector (as described above) and the transcriptional reporter construct (pGL4.35, Promega). 60 μL of TransIT-293 transfection reagent (Mirus Bio) was added drop wise to 1500 μl Opti-MEM I Reduced Serum Medium (Invitrogen) and incubated at RT (RT) for 5 to 20 minutes. 1500 μL of this reagent mixture was added to 5 μg of GAL4 fusion protein expression vector and 5 μg of the transcriptional reporter construct, and incubated at RT for 20 minutes.
To harvest 293FT cells from a T75 flask, first the culture medium was taken off the cells. Subsequently, the cells were washed with Phosphate Buffered Saline (PBS) (Lonza), after which the PBS was removed. To dissociate the cells, 1 ml of TrypLE Express (Invitrogen) was added to the flask, followed by incubation at RT until the cells visually started to detach. Cells were collected in 5 mL of assay medium (DMEM culture medium (Lonza), 10% dialyzed FBS (Invitrogen) and Pen/Strep (Lonza)) to achieve a single cell suspension. 10×10^6 cells were spun down and re-suspended in 10 mL of assay medium. Subsequently, the cell suspension was added to the transfection mix tube, and then transferred as a whole to a T75 flask (Greiner), followed by overnight (16-24 hours) incubation at 37° C. and 5% CO2.
For compound screening, the cells were harvested (as described above) and counted. 13×10^6 cells were spun down, the supernatant was aspirated and the cells were re-suspended in 17.3 mL of assay medium obtaining a cell suspension of 0.75×10^6 cells/mL. 80 μL of cell suspension (60,000 cells) was plated per well into a white, flat bottom, tissue culture treated, 96 well screening plates (Greiner).
Test compounds were diluted, starting from a 10 mM dimethylsulfoxide (DMSO) stock solution, to serial dilutions in DMSO at 500× the final test concentration. Subsequently, these solutions were diluted to 5× the final test concentration in two 10-fold-dilution steps in assay medium. The final DMSO concentration of the 5× test compound solution was 1%. 20 μL of the 5× test compound solution was added to each test well of the 96 well plate previously plated with 80 μl cell suspension, resulting in the final test concentration with 0.2% DMSO. […]

IC50 [nM]	SMILES
≤ 100	CCC(O)(c1ccc(C(=O)NCc2ccc(S(=O)(=O)CC3CC3)cc2)cc1)C(F)(F)F (racemic) [(+)-1, (+)-N-[[4-(cyclopropylmethylsulfonyl)phenyl]methyl]-4-[1-hydroxy-1-(trifluoromethyl)propyl]benzamide]
≤ 1000	CCC(O)(c1ccc(C(=O)NCc2ccc(S(=O)(=O)CC3CC3)cc2)cc1)C(F)(F)F (racemic) [(−)-1, (−)-N-[[4-(cyclopropylmethylsulfonyl)phenyl]methyl]-4-[1-hydroxy-1-(trifluoromethyl)propyl]benzamide]
≤ 100	CCC(O)(c1ccc(C(=O)NCc2ccc(S(=O)(=O)CC3CC3)cc2)cc1)C(F)(F)F (racemic) [Example 1, N-[[4-(cyclopropylmethylsulfonyl)phenyl]methyl]-4-[1-hydroxy-1-(trifluoromethyl)propyl]benzamide]
≤ 1000	CC(O)(c1ccc(C(=O)NCc2ccc(S(=O)(=O)CC3CC3)cc2)cc1)C(F)(F)F (stereo not drawn) [Example 2, N-[[4-(cyclopropylmethylsulfonyl)phenyl]methyl]-4-(2,2,2-trifluoro-1-hydroxy-1-methyl-ethyl)benzamide]
> 10000	CC(C)(O)c1ccc(C(=O)NCc2ccc(S(=O)(=O)CC3CC3)cc2)cc1 [Example 3, N-[[4-(cyclopropylmethylsulfonyl)phenyl]methyl]-4-(1-hydroxy-1-methyl-ethyl)benzamide]
≤ 100	O=C(NCc1ccc(S(=O)(=O)CC2CC2)cc1)c1ccc(C(O)(C(F)(F)F)C(F)(F)F)cc1 [Example 4, N-[[4-(cyclopropylmethylsulfonyl)phenyl]methyl]-4-[2,2,2-trifluoro-1-hydroxy-1-(trifluoromethyl)ethyl]benzamide]
≤ 100	CCCC(O)(c1ccc(C(=O)NCc2ccc(S(=O)(=O)CC3CC3)cc2)cc1)C(F)(F)F (stereo not drawn) [Example 6, N-[[4-(cyclopropylmethylsulfonyl)phenyl]methyl]-4-[1-hydroxy-1-(trifluoromethyl)butyl]benzamide]
≤ 100	CCCCC(O)(c1ccc(C(=O)NCc2ccc(S(=O)(=O)CC3CC3)cc2)cc1)C(F)(F)F (stereo not drawn) [Example 7, N-[[4-(cyclopropylmethylsulfonyl)phenyl]methyl]-4-[1-hydroxy-1-(trifluoromethyl)pentyl]benzamide]
≤ 100	CC(C)CC(O)(c1ccc(C(=O)NCc2ccc(S(=O)(=O)CC3CC3)cc2)cc1)C(F)(F)F (stereo not drawn) [Example 8, N-[[4-(cyclopropylmethylsulfonyl)phenyl]methyl]-4-[1-hydroxy-3-methyl-1-(trifluoromethyl)butyl]benzamide]
≤ 100	CC(C)(C)CC(O)(c1ccc(C(=O)NCc2ccc(S(=O)(=O)CC3CC3)cc2)cc1)C(F)(F)F (stereo not drawn) [Example 9, N-[[4-(cyclopropylmethylsulfonyl)phenyl]methyl]-4-[1-hydroxy-3,3-dimethyl-1-(trifluoromethyl)butyl]benzamide]
≤ 100	CC(C)C(O)(c1ccc(C(=O)NCc2ccc(S(=O)(=O)CC3CC3)cc2)cc1)C(F)(F)F (stereo not drawn) [Example 10, N-[[4-(cyclopropylmethylsulfonyl)phenyl]methyl]-4-[1-hydroxy-2-methyl-1-(trifluoromethyl)propyl]benzamide]
≤ 100	O=C(NCc1ccc(S(=O)(=O)CC2CC2)cc1)c1ccc(C(O)(C2CC2)C(F)(F)F)cc1 (stereo not drawn) [Example 11, N-[[4-(cyclopropylmethylsulfonyl)phenyl]methyl]-4-(1-cyclopropyl-2,2,2-trifluoro-1-hydroxy-ethyl)benzamide]
≤ 100	O=C(NCc1ccc(S(=O)(=O)CC2CC2)cc1)c1ccc(C(O)(C2CCCC2)C(F)(F)F)cc1 (stereo not drawn) [Example 12, 4-(1-cyclopentyl-2,2,2-trifluoro-1-hydroxy-ethyl)-N-[[4-(cyclopropylmethylsulfonyl)phenyl]methyl]benzamide]
≤ 1000	O=C(NCc1ccc(S(=O)(=O)CC2CC2)cc1)c1ccc(C(O)(c2ccccc2)C(F)(F)F)cc1 (stereo not drawn) [Example 13, N-[[4-(cyclopropylmethylsulfonyl)phenyl]methyl]-4-(2,2,2-trifluoro-1-hydroxy-1-phenyl-ethyl)benzamide]
≤ 100	O=C(NCc1ccc(S(=O)(=O)CC2CC2)cc1)c1ccc(C(O)(Cc2ccccc2)C(F)(F)F)cc1 (stereo not drawn) [Example 14, 4-(1-benzyl-2,2,2-trifluoro-1-hydroxy-ethyl)-N-[[4-(cyclopropylmethylsulfonyl)phenyl]methyl]benzamide]
≤ 100	Cc1cc(C(=O)NCc2ccc(S(=O)(=O)CC3CC3)cc2)ccc1C(O)(C(F)(F)F)C(F)(F)F [Example 15, N-[[4-(cyclopropylmethylsulfonyl)phenyl]methyl]-3-methyl-4-[2,2,2-trifluoro-1-hydroxy-1-(trifluoromethyl)ethyl]benzamide]
< 10000	CCC(O)(c1ccc(C(=O)NCc2ccc(S(=O)(=O)CC)cc2)cc1)C(F)(F)F (stereo not drawn) [Example 17, N-[(4-ethylsulfonylphenyl)methyl]-4-[1-hydroxy-1-(trifluoromethyl)propyl]benzamide]
≤ 1000	CCS(=O)(=O)c1ccc(CNC(=O)c2ccc(C(O)(CC(C)(C)C)C(F)(F)F)cc2)cc1 (stereo not drawn) [Example 18, N-[(4-ethylsulfonylphenyl)methyl]-4-[1-hydroxy-3,3-dimethyl-1-(trifluoromethyl)butyl]benzamide]
< 10000	CCS(=O)(=O)c1ccc(CNC(=O)c2ccc(C(O)(C(F)(F)F)C(F)(F)F)cc2)cc1 [Example 19, N-[(4-ethylsulfonylphenyl)methyl]-4-[2,2,2-trifluoro-1-hydroxy-1-(trifluoromethyl)ethyl]benzamide]
≤ 1000	CCCCC(O)(c1ccc(C(=O)NCc2ccc(S(=O)(=O)NC3CC3)cc2)cc1)C(F)(F)F (stereo not drawn) [Example 20, N-[[4-(cyclopropylsulfamoyl)phenyl]methyl]-4-[1-hydroxy-1-(trifluoromethyl)pentyl]benzamide]
≤ 1000	O=C(NCc1ccc(S(=O)(=O)NC2CC2)cc1)c1ccc(C(O)(C(F)(F)F)C(F)(F)F)cc1 [Example 21, N-[[4-(cyclopropylsulfamoyl)phenyl]methyl]-4-[2,2,2-trifluoro-1-hydroxy-1-(trifluoromethyl)ethyl]benzamide]
≤ 100	COC(c1ccc(C(=O)NCc2ccc(S(=O)(=O)CC3CC3)cc2)cc1)(C(F)(F)F)C(F)(F)F [Example 22, N-[[4-(cyclopropylmethylsulfonyl)phenyl]methyl]-4-[2,2,2-trifluoro-1-methoxy-1-(trifluoromethyl)ethyl]benzamide]
≤ 100	CCOC(c1ccc(C(=O)NCc2ccc(S(=O)(=O)CC3CC3)cc2)cc1)(C(F)(F)F)C(F)(F)F [Example 23, N-[[4-(cyclopropylmethylsulfonyl)phenyl]methyl]-4-[1-ethoxy-2,2,2-trifluoro-1-(trifluoromethyl)ethyl]benzamide]
≤ 100	CCCOC(c1ccc(C(=O)NCc2ccc(S(=O)(=O)CC3CC3)cc2)cc1)(C(F)(F)F)C(F)(F)F [Example 24, N-[[4-(cyclopropylmethylsulfonyl)phenyl]methyl]-4-[2,2,2-trifluoro-1-propoxy-1-(trifluoromethyl)ethyl]benzamide]

Source: patent US10556866B2, “ROR gamma (RORγ) modulators” (LEAD PHARMA HOLDING B.V., priority 2015, dated 2020)
